Paper PMC12203862, “BroadAMP-GPT: AI-Driven generation of broad-spectrum antimicrobial peptides for combating multidrug-resistant ESKAPE pathogens” (Gut Microbes, 2025)
In brackets after ≈: the same amount, converted by molar mass. Residues, ends and D or L forms follow the SMILES beside them.

Legend:
[1] = test system: S. aureus ATCC 29213; test: microbe, parasite or virus in culture; type: cell-based; conditions: ATCC 29213
[2] = test system: E. faecium HFY01; test: microbe, parasite or virus in culture; type: cell-based; conditions: HFY01
Method: (§1) Bacterial strains and growth conditions: All Gram-negative and Gram-positive bacterial strains (Supplementary Table S8) were cultured in Luria-Bertani (LB) or trypticase soy broth (TSB) agar plates, respectively, and incubated overnight at 37 °C unless specifically indicated. A single colony of the tested bacterial strains was inoculated into medium broth with shaking at 220 rpm for further experiments.
(§2) Minimal inhibitory concentrations: Antimicrobial susceptibility testing was performed by broth microdilution method for AMPs against Gram-positive and Gram-negative pathogens above mentioned, following the methods of document CLSI M100-ED34.[43] The MICs were defined as the lowest concentrations that inhibit visible growth of the tested bacteria. E. coli ATCC 25,922 and S. aureus ATCC 29,213 were served as quality controls.

[3] = test system: S. aureus M92-1; test: microbe, parasite or virus in culture; type: cell-based; conditions: M92-1
Method: as §1, §2

[4] = test system: S. aureus YZSA-15; test: microbe, parasite or virus in culture; type: cell-based; conditions: YZSA-15
Method: as §1, §2

[5] = test system: E. faecalis ES01; test: microbe, parasite or virus in culture; type: cell-based; conditions: ES01
Method: as §1, §2

[6] = test system: S. agalactiae DL03; test: microbe, parasite or virus in culture; type: cell-based; conditions: DL03
Method: as §1, §2

[7] = test system: E. faecalis JH2-2; test: microbe, parasite or virus in culture; type: cell-based; conditions: JH2-2
Method: as §1, §2

[8] = test system: S. aureus YZSA-24; test: microbe, parasite or virus in culture; type: cell-based; conditions: YZSA-24
Method: as §1, §2

[9] = test system: E. faecium QF31; test: microbe, parasite or virus in culture; type: cell-based; conditions: QF31
Method: as §1, §2

[10] = test system: S. pyogenes DL02; test: microbe, parasite or virus in culture; type: cell-based; conditions: DL02
Method: as §1, §2

[11] = test system: E. faecalis J2; test: microbe, parasite or virus in culture; type: cell-based; conditions: J2
Method: as §1, §2

[12] = test system: E. faecium MC38; test: microbe, parasite or virus in culture; type: cell-based; conditions: MC38
Method: as §1, §2

[13] = test system: P. aeruginosa PAO1; test: microbe, parasite or virus in culture; type: cell-based; conditions: PAO1
Method: as §1, §2

[14] = test system: S. aureus M147-2; test: microbe, parasite or virus in culture; type: cell-based; conditions: M147-2
Method: as §1, §2

[15] = test system: S. suis SH0918; test: microbe, parasite or virus in culture; type: cell-based
Method: as §1, §2

[16] = test system: P. aeruginosa PA14; test: microbe, parasite or virus in culture; type: cell-based; conditions: PA14
Method: as §1, §2

[17] = test system: K. pneumoniae 9-1; test: microbe, parasite or virus in culture; type: cell-based; conditions: 9-1
Method: as §1, §2

[18] = test system: S. aureus YZSA-21; test: microbe, parasite or virus in culture; type: cell-based; conditions: YZSA-21
Method: as §1, §2

[19] = test system: E. coli ATCC 25922; test: microbe, parasite or virus in culture; type: cell-based; conditions: ATCC 25922
Method: as §1, §2

[20] = test system: A. baumannii 7979; test: microbe, parasite or virus in culture; type: cell-based; conditions: 7979
Method: as §1, §2

[21] = test system: E. faecalis SF23-1; test: microbe, parasite or virus in culture; type: cell-based; conditions: SF23-1
Method: as §1, §2

[22] = test system: HEp-2; test: Cytotoxicity, CCK-8; type: cell-based, human
Method: (§3) The cytotoxicity of selected AMPs to human laryngeal carcinoma epithelial cell (HEp-2) and colorectal adenocarcinoma cell (Caco-2) lines was evaluated using the CCK-8 method as previously described.[55] The cells were cultured in high-glucose dulbecco’s modified eagle medium (DMEM) supplemented with 10% fetal bovine serum (FBS) and 1% penicillin-streptomycin. Cells were inoculated in 96-well sterile microtiter plate at 5000 cells/100 μL. After cultured (37℃, 5%CO2) for 24 h, cells were treated with AMPs at concentrations ranging from 8 to 128 μg/mL for another 48 h. Afterward, the culture medium was replaced by fresh DMEM medium containing 10% CCK-8 and incubated for 1 h. The absorbance of the solution was measured at 450 nm by a microplate reader. Cell viability was calculated as: % cell viability = [(Abssample - Absblank)/(Absnegative - Absblank)]×100%. Each experiment was carried out with three replicates.

[23] = test system: Caco-2; test: Cytotoxicity, CCK-8; type: cell-based, human
Method: as §3

[24] = test system: mouse red blood cells; test: Haemolysis assay; type: cell-based
Method: Red blood cells (RBCs) from Kunming mice were used to evaluate the hemolytic toxicity of the selected AMPs. Fresh red blood cells were collected from mice and washed until the supernatant was completely cleared. Added 19-fold volume of PBS to prepare 2% RBC suspension. […] Afterward, the mixture was centrifuged at 1500 rpm for 10 min. Then transferred 30 µL supernatant to 96-well plate containing 70 µL PBS. The absorbance of the sample was measured at 450 nm by a microplate reader. PBS and 2% Triton X-100 was used as negative and positive control, respectively. The experiment was performed in triplicate and the hemolysis activity was calculated by the formula hemolysis = [(Absorbancesample- AbsorbancePBS)/(AbsorbanceTriton x-100-AbsorbancePBS)]×100%.

[25] = test system: S. aureus clinical isolates (n = 40); type: cell-based
Method: as §1, §2

[26] = test system: four Gram-positive and five Gram-negative bacteria, including ESKAPE pathogens; type: cell-based
Method: as §1, §2

[27] = target: proteinase K (Parengyodontium album, UniProt P06873); test: Protease stability by MIC change; type: in vitro ADME; conditions: proteinase K 10 μg/mL, 37℃, 1 h, then MIC
Chain of proteinase K (P06873 106-384): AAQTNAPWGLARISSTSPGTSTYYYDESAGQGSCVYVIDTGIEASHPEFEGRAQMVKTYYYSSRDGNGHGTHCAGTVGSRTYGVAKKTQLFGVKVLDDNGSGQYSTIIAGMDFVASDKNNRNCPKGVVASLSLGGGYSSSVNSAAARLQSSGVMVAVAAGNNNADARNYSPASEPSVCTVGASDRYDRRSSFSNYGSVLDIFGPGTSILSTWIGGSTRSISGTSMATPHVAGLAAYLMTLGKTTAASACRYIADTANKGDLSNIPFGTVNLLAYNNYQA

[28] = test system: S. suis P1/7; test: microbe, parasite or virus in culture
Method: as §1
as §2, with “bacteria.” for “bacteria. E. coli ATCC 25,922 and S. aureus ATCC 29,213 were served as quality controls.”

[29] = test system: trypsin; conditions: trypsin 10 μg/mL, 37℃, 1 h, then MIC
Method: (§4) To understand stability of peptide under different pH conditions, AMP solutions were prepared at different pH values (pH = 2, 4, 6, 8, 10, and 12) and then incubated at room temperature for 1 h. For the temperature stability, AMP solutions were incubated at 20, 25, 40, 60, 80, and 100℃ for 1 h. For the protease stability, AMP solutions were incubated with pepsin, trypsin, and proteinase K at different concentration of 10 μg/mL at 37℃ for 1 h.[52],[53] After incubation, the MIC values peptides were determined using the MIC experimental protocol.

[30] = test system: pepsin; conditions: pepsin 10 μg/mL, 37℃, 1 h, then MIC
Method: as §4

[31] = test system: S. enteritis S1; test: organism not typed; type: cell-based
Method: as §1, §2

[32] = MIC in the presence of 50% rabbit plasma; S. aureus, E. faecalis, S. suis, S. enteritis, K. pneumoniae
[33] = test system: chymotrypsin; conditions: 1 h, then MIC

SMILES: CC[C@H](C)[C@H](NC(=O)[C@H](C)NC(=O)[C@H](CCC(N)=O)NC(=O)[C@H](Cc1c[nH]c2ccccc12)NC(=O)[C@H](C)N)C(=O)N[C@@H](C)C(=O)N[C@@H](CCCNC(=N)N)C(=O)N[C@@H](CC(C)C)C(=O)N[C@H](C(=O)N[C@@H](CCCCN)C(=O)NCC(=O)N[C@@H](CCCNC(=N)N)C(=O)NCC(=O)N[C@@H](CCCNC(=N)N)C(=O)N[C@@H](CCCCN)C(=O)N[C@@H](CCCCN)C(=O)N[C@@H](Cc1ccc(O)cc1)C(=O)NCC(=O)N[C@@H](CCCNC(=N)N)C(=O)N[C@H](C(=O)N[C@H](C(=O)N[C@H](C(=O)N[C@H](C(=O)NCC(=O)O)[C@@H](C)CC)[C@@H](C)CC)[C@@H](C)CC)[C@@H](C)CC)[C@@H](C)CC [AMP_S13] (H-AWQAIARLIKGRGRKKYGRIIIIG-OH)
- MIC [1]: 8 µg/mL (≈ 2.92 µM)
- MIC [2]: 4 µg/mL (≈ 1.46 µM)
- MIC [3]: 8 µg/mL (≈ 2.92 µM)
- MIC [4]: 8 µg/mL (≈ 2.92 µM)
- MIC [5]: 4 µg/mL (≈ 1.46 µM)
- MIC [6]: 4 µg/mL (≈ 1.46 µM)
- MIC [7]: 8 µg/mL (≈ 2.92 µM)
- MIC [8]: 16 µg/mL (≈ 5.84 µM)
- MIC [9]: 4 µg/mL (≈ 1.46 µM)
- MIC [10]: 4 µg/mL (≈ 1.46 µM)
- MIC [11]: 8 µg/mL (≈ 2.92 µM)
- MIC [12]: 4 µg/mL (≈ 1.46 µM)
- MIC [13]: 8 µg/mL (≈ 2.92 µM)
- MIC [14]: 8 µg/mL (≈ 2.92 µM)
- MIC [15]: 4 µg/mL (≈ 1.46 µM)
- MIC [16]: 8 µg/mL (≈ 2.92 µM)
- MIC [17]: 16 µg/mL (≈ 5.84 µM)
- MIC [18]: 8 µg/mL (≈ 2.92 µM)
- MIC [19]: 8 µg/mL (≈ 2.92 µM)
- MIC [20]: 2 µg/mL (≈ 0.73 µM)
- MIC [21]: 8 µg/mL (≈ 2.92 µM)
- CC50 ([22]; 48 h): 353.3 µg/mL (≈ 129 µM)
- CC50/MIC ([22]; HEp-2, MIC values against S. aureus ATCC 29213): 44.16
- CC50 ([23]; 48 h): 1011 µg/mL (≈ 369 µM)
- CC50/MIC ([23]; Caco-2, MIC values against S. aureus ATCC 29213): 126.38
- HC50/MIC ([24]; MIC values against S. aureus ATCC 29213): 116.08
- HC50 ([24]; mouse red blood cells, 37℃, 1 h): 928.6 µg/mL
- MICs, range over clinical isolates [25]: 4 to 32 µg/mL
- MIC values, range [26]: 2 to 16 µg/mL
- MICs, range over panel [26]: 2 to 16 µg/mL
- antimicrobial activity (MIC) after protease incubation [27]: only a two-fold decrease in MIC
- MIC [28]: 4 µg/mL (≈ 1.46 µM)
- antimicrobial activity (MIC) after protease incubation [29]: maintained its activity
- antimicrobial activity (MIC) after protease incubation [30]: maintained its activity
- MIC [31]: 16 µg/mL (≈ 5.84 µM)
- antimicrobial activity in plasma [32]: remained effective
- antimicrobial activity (MIC) after protease incubation [33]: maintained its activity
